Experimental data reported in ChEMBL document CHEMBL3233003, “Chromodomain antagonists that target the polycomb-group methyllysine reader protein chromobox homolog 7 (CBX7)” (J Med Chem, 2014).
Starred links: 1 amine or outer side, 2 acyl side, 3 side chain; linkers in the order of their positions; H or OH if unused. Non-standard residues stand in square brackets, D forms with d. Residues, ends and D or L forms follow the SMILES beside them. *: point of attachment. Benzoyl(4-CO2Me) = COC(=O)c1ccc(C(=O)*)cc1; Benzoyl(4-COOH) = O=C(O)c1ccc(C(=O)*)cc1; Lys(Me3) = C[N+](C)(C)CCCC[C@H](N)C(=O)O; Ethylenediamine = C(CN[*:2])N[*:1]; Hydrocinnamoyl = O=C(CCc1ccccc1)*; NBnAla = C[C@H](NCc1ccccc1)C(=O)O; Ala(cPr) = N[C@@H](CC1CC1)C(=O)O; 3Pal = N[C@@H](Cc1cccnc1)C(=O)O; X6 = O=C(O)c1ccc(S(=O)(=O)*)cc1; Cha = N[C@@H](CC1CCCCC1)C(=O)O; Gly(cPr) = N[C@H](C(=O)O)C1CC1; Tle = CC(C)(C)[C@H](N)C(=O)O; Nicotinoyl = O=C(c1cccnc1)*; Tos = Cc1ccc(S(=O)(=O)*)cc1; X2 = O=C(c1c[nH]c2ccccc12)*; X5 = c1ccc2[nH]c(N*)nc2c1; X9 = O[C@H]1CCCC[C@@H]1N*; NHCH(CH2OH)2 = OCC(CO)N*; Nle = CCCC[C@H](N)C(=O)O; X10 = O=C(Cc1ccccc1Br)*; X7 = O=S(=O)(c1cccnc1)*; Cbz = O=C(OCc1ccccc1)*; PhAc = O=C(Cc1ccccc1)*; Bz = O=C(c1ccccc1)*; NHCH2CH2OH = OCCN*; X8 = OCC1(N*)CCCC1; X4 = CC(C)C(CO)N*; X1 = CCCC(CO)N*

Biological target: T1, Chromobox protein homolog 7 (Homo sapiens, UniProt O95931)
T1 sequence (O95931 whole entry): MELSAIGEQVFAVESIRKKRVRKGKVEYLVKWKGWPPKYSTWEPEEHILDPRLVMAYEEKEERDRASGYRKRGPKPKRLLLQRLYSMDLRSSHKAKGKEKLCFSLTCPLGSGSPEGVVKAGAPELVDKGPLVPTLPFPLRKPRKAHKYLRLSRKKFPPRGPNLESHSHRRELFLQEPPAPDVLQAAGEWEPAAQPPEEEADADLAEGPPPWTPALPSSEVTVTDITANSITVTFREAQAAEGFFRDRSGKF
Experiment: Displacement of FITC-labeled H3K27me3 from CBX7 (unknown origin) after 15 mins by fluorescence polarization assay

SMILES | IC50 [µM]
CC(C)C[C@H](NC(=O)[C@H](C)NS(=O)(=O)c1cccnc1)C(=O)N[C@@H](CCCC[N+](C)(C)C)C(=O)N[C@@H](CO)C(N)=O (X7-AL[Lys(Me3)]S-NH2) | > 250
CC(C)C[C@H](NC(=O)[C@H](C)NC(=O)CNC(=O)Cc1ccccc1)C(=O)N[C@@H](CCCC[N+](C)(C)C)C(=O)N[C@@H](CO)C(N)=O (PhAc-GAL[Lys(Me3)]S-NH2) | 100
CC(C)C[C@H](NC(=O)[C@H](C)NC(=O)OCc1ccccc1)C(=O)N[C@@H](CCCC[N+](C)(C)C)C(=O)N[C@@H](CO)C(N)=O (Cbz-AL[Lys(Me3)]S-NH2) | 58
CCCC(CO)NC(=O)[C@H](CCCC[N+](C)(C)C)NC(=O)[C@H](CC(C)C)NC(=O)[C@H](C)NC(=O)[C@H](Cc1ccccc1)NC(C)=O (stereo partly specified) (Ac-FAL[Lys(Me3)]-X1) | > 500
CCCC[C@H](NC(=O)[C@H](Cc1ccccc1)NC(C)=O)C(=O)N[C@@H](CC(C)C)C(=O)N[C@@H](CCCC[N+](C)(C)C)C(=O)N[C@@H](CO)C(N)=O (Ac-F[Nle]L[Lys(Me3)]S-NH2) | 120
CC(=O)N[C@@H](Cc1ccccc1)C(=O)N[C@@H](C)C(=O)N[C@@H](CC(C)C)C(=O)N[C@@H](CCCC[N+](C)(C)C)C(=O)NC(CO)C(C)C (stereo partly specified) (Ac-FAL[Lys(Me3)]-X4) | > 250
CC(C)C[C@H](NC(=O)[C@H](C)NC(=O)c1cccnc1)C(=O)N[C@@H](CCCC[N+](C)(C)C)C(=O)N[C@@H](CO)C(N)=O (Nicotinoyl-AL[Lys(Me3)]S-NH2) | 91
Cc1ccc(S(=O)(=O)N[C@@H](Cc2ccccc2)C(=O)N[C@@H](C)C(=O)N[C@@H](CC(C)C)C(=O)N[C@@H](CCCC[N+](C)(C)C)C(=O)N[C@@H](CO)C(N)=O)cc1 (Tos-FAL[Lys(Me3)]S-NH2) | > 250
CC(C)C[C@H](NC(=O)[C@H](C)NC(=O)Cc1ccccc1Br)C(=O)N[C@@H](CCCC[N+](C)(C)C)C(=O)N[C@@H](CO)C(N)=O (X10-AL[Lys(Me3)]S-NH2) | 89
CSCC[C@H](NC(=O)[C@H](C)NC(=O)[C@H](Cc1ccccc1)NC(C)=O)C(=O)N[C@@H](CCCC[N+](C)(C)C)C(=O)N[C@@H](CO)C(N)=O (Ac-FAM[Lys(Me3)]S-NH2) | 62
CC(=O)N[C@@H](Cc1ccccc1)C(=O)N[C@@H](C)C(=O)N[C@@H](CC(C)C)C(=O)N[C@@H](CCCC[N+](C)(C)C)C(=O)NC1(CO)CCCC1 (Ac-FAL[Lys(Me3)]-X8) | > 250
CC(=O)N[C@@H](Cc1ccccc1)C(=O)N[C@@H](C)C(=O)N[C@@H](CC(C)C)C(=O)N[C@@H](CCCC[N+](C)(C)C)C(=O)N[C@H]1CCCC[C@@H]1O (Ac-FAL[Lys(Me3)]-X9) | > 250
CC(C)C[C@H](NC(=O)[C@H](C)NCc1ccccc1)C(=O)N[C@@H](CCCC[N+](C)(C)C)C(=O)N[C@@H](CO)C(N)=O (H-[NBnAla]L[Lys(Me3)]S-NH2) | > 2000
CC(C)C[C@H](NC(=O)[C@H](C)NC(=O)CNC(=O)c1ccccc1)C(=O)N[C@@H](CCCC[N+](C)(C)C)C(=O)N[C@@H](CO)C(N)=O (Bz-GAL[Lys(Me3)]S-NH2) | 58
CC(=O)N[C@@H](Cc1ccccc1)C(=O)N[C@@H](C)C(=O)N[C@H](C(=O)N[C@@H](CCCC[N+](C)(C)C)C(=O)N[C@@H](CO)C(N)=O)C(C)(C)C (Ac-FA[Tle][Lys(Me3)]S-NH2) | 67
CC(C)C[C@H](NC(=O)[C@H](C)NC(=O)c1c[nH]c2ccccc12)C(=O)N[C@@H](CCCC[N+](C)(C)C)C(=O)N[C@@H](CO)C(N)=O (X2-AL[Lys(Me3)]S-NH2) | 67
CC(C)C[C@H](NC(=O)[C@H](C)NC(=O)c1ccccc1)C(=O)N[C@@H](CCCC[N+](C)(C)C)C(=O)N[C@@H](CO)C(N)=O (Bz-AL[Lys(Me3)]S-NH2) | 57
CC(=O)N[C@@H](Cc1ccccc1)C(=O)N[C@@H](C)C(=O)N[C@@H](CC(C)C)C(=O)N[C@@H](CCCC[N+](C)(C)C)C(=O)O (Ac-FAL[Lys(Me3)]-OH) | 560
CC(=O)N[C@@H](Cc1ccccc1)C(=O)N[C@H](C(=O)N[C@@H](CC(C)C)C(=O)N[C@@H](CCCC[N+](C)(C)C)C(=O)N[C@@H](CO)C(N)=O)C(C)C (Ac-FVL[Lys(Me3)]S-NH2) | > 500

Stronger by IC50, values ahead:

IC50 [µM] | SMILES
8.8 | CC(=O)N[C@@H](Cc1ccccc1)C(=O)N[C@@H](C)C(=O)N[C@@H](CC1CCCCC1)C(=O)N[C@@H](CCCC[N+](C)(C)C)C(=O)N[C@@H](CO)C(N)=O (Ac-FA[Cha][Lys(Me3)]S-NH2)
11 | CC(=O)N[C@@H](Cc1ccccc1)C(=O)N[C@@H](C)C(=O)N[C@@H](Cc1cccnc1)C(=O)N[C@@H](CCCC[N+](C)(C)C)C(=O)N[C@@H](CO)C(N)=O (Ac-FA[3Pal][Lys(Me3)]S-NH2)
53 | CC(C)C[C@H](NC(=O)[C@H](C)NC(=O)CNS(=O)(=O)c1ccc(C(=O)O)cc1)C(=O)N[C@@H](CCCC[N+](C)(C)C)C(=O)N[C@@H](CO)C(N)=O (X6-GAL[Lys(Me3)]S-NH2)
6.8 | CC(=O)N[C@@H](Cc1ccccc1)C(=O)N[C@@H](C)C(=O)N[C@H](C(=O)N[C@@H](CCCC[N+](C)(C)C)C(=O)N[C@@H](CO)C(N)=O)C(C)C (Ac-FAV[Lys(Me3)]S-NH2)
35 | CC(=O)N[C@@H](Cc1ccccc1)C(=O)N[C@@H](C)C(=O)N[C@@H](CC(C)C)C(=O)N[C@@H](CCCC[N+](C)(C)C)C(=O)Nc1nc2ccccc2[nH]1 (Ac-FAL[Lys(Me3)]-X5)
27 | CC(=O)N[C@@H](Cc1ccccc1)C(=O)N[C@@H](C)C(=O)N[C@@H](CC(C)C)C(=O)N[C@@H](CCCC[N+](C)(C)C)C(=O)N[C@@H](CO)C(=O)O
26 | CC(C)C[C@H](NC(=O)[C@H](C)NC(=O)CCc1ccccc1)C(=O)N[C@@H](CCCC[N+](C)(C)C)C(=O)N[C@@H](CO)C(N)=O (Hydrocinnamoyl-AL[Lys(Me3)]S-NH2)
22 | CC(=O)N[C@@H](Cc1ccccc1)C(=O)N[C@@H](C)C(=O)N[C@@H](CC(C)C)C(=O)N[C@@H](CCCC[N+](C)(C)C)C(=O)NCCN (Ac-FAL[Lys(Me3)]-Ethylenediamine)
10.1 | CC(=O)N[C@@H](Cc1ccccc1)C(=O)N[C@@H](C)C(=O)N[C@@H](CCCCN)C(=O)N[C@@H](CCCC[N+](C)(C)C)C(=O)N[C@@H](CO)C(N)=O (Ac-FAK[Lys(Me3)]S-NH2)
6.2 | CC(C)C[C@H](NC(=O)[C@H](C)NC(=O)[C@H](Cc1ccccc1)NC(=O)c1ccc(C(=O)O)cc1)C(=O)N[C@@H](CCCC[N+](C)(C)C)C(=O)N[C@@H](CO)C(N)=O ({Benzoyl(4-COOH)}-FAL[Lys(Me3)]S-NH2)
23 | CC(C)C[C@H](NC(=O)[C@H](C)NC(=O)Cc1ccccc1)C(=O)N[C@@H](CCCC[N+](C)(C)C)C(=O)N[C@@H](CO)C(N)=O (PhAc-AL[Lys(Me3)]S-NH2)
6.7 | CC(C)C[C@H](NC(=O)[C@H](C)NC(=O)[C@H](Cc1ccccc1)NS(=O)(=O)c1ccc(C(=O)O)cc1)C(=O)N[C@@H](CCCC[N+](C)(C)C)C(=O)N[C@@H](CO)C(N)=O (X6-FAL[Lys(Me3)]S-NH2)
21 | CC(=O)N[C@@H](Cc1ccccc1)C(=O)N[C@@H](C)C(=O)N[C@H](C(=O)N[C@@H](CCCC[N+](C)(C)C)C(=O)N[C@@H](CO)C(N)=O)C1CC1 (Ac-FA[Gly(cPr)][Lys(Me3)]S-NH2)
26 | CC(=O)N[C@@H](Cc1ccccc1)C(=O)N[C@@H](C)C(=O)N[C@@H](CC(C)C)C(=O)N[C@@H](CCCC[N+](C)(C)C)C(=O)NCCO (Ac-FAL[Lys(Me3)]-NHCH2CH2OH)
8.6 | CC(=O)N[C@@H](Cc1ccc(O)cc1)C(=O)N[C@@H](C)C(=O)N[C@@H](CC(C)C)C(=O)N[C@@H](CCCC[N+](C)(C)C)C(=O)N[C@@H](CO)C(N)=O (Ac-YAL[Lys(Me3)]S-NH2)
11.2 | CC(=O)N[C@@H](Cc1ccccc1)C(=O)N[C@@H](C)C(=O)N[C@@H](CC1CC1)C(=O)N[C@@H](CCCC[N+](C)(C)C)C(=O)N[C@@H](CO)C(N)=O (Ac-FA[Ala(cPr)][Lys(Me3)]S-NH2)
7.8 | CC(=O)N[C@@H](Cc1c[nH]c2ccccc12)C(=O)N[C@@H](C)C(=O)N[C@@H](CC(C)C)C(=O)N[C@@H](CCCC[N+](C)(C)C)C(=O)N[C@@H](CO)C(N)=O (Ac-WAL[Lys(Me3)]S-NH2)
6.3 | COC(=O)c1ccc(C(=O)N[C@@H](Cc2ccccc2)C(=O)N[C@@H](C)C(=O)N[C@@H](CC(C)C)C(=O)N[C@@H](CCCC[N+](C)(C)C)C(=O)N[C@@H](CO)C(N)=O)cc1 ({Benzoyl(4-CO2Me)}-FAL[Lys(Me3)]S-NH2)
23 | CC(=O)N[C@@H](Cc1ccccc1)C(=O)N[C@@H](C)C(=O)N[C@@H](CC(C)C)C(=O)N[C@@H](CCCC[N+](C)(C)C)C(=O)NC(CO)CO (Ac-FAL[Lys(Me3)]-{NHCH(CH2OH)2})
5.7 | CC[C@H](C)[C@H](NC(=O)[C@H](C)NC(=O)[C@H](Cc1ccccc1)NC(C)=O)C(=O)N[C@@H](CCCC[N+](C)(C)C)C(=O)N[C@@H](CO)C(N)=O (Ac-FAI[Lys(Me3)]S-NH2)
8.8 | CC(C)C[C@H](NC(=O)[C@H](C)NC(=O)[C@H](Cc1ccccc1)NC(=O)c1ccccc1)C(=O)N[C@@H](CCCC[N+](C)(C)C)C(=O)N[C@@H](CO)C(N)=O (Bz-FAL[Lys(Me3)]S-NH2)
53 | CC(=O)N[C@@H](Cc1ccccc1)C(=O)N[C@@H](CO)C(=O)N[C@@H](CC(C)C)C(=O)N[C@@H](CCCC[N+](C)(C)C)C(=O)N[C@@H](CO)C(N)=O (Ac-FSL[Lys(Me3)]S-NH2)
